From patent US20030031658A1, “Targeting of endosomal growth factor processing as anti-cancer therapy” (priority 1999, published 2003)

Key:
[1] = system: IGF-I binding sites on H-59 cells; experiment: Ligand-binding assay of cell surface IGF-1 receptors, H-59; parameters: species or system murine
Procedure: (§1) The ligand-binding assay and fluorocytometry were used to measure cell surface IGF-1 receptors on the murine H-59 and human MCF-7 cells, respectively. […] Incubation was for 1 h at 37° C. following which the cells were rinsed and lysed in 0.01 N NaOH containing 0.1% Triton X-100 and 0.1% SDS and the radioactivity measured. The number of cells/plate at the time of the assay was determined from triplicate control wells which were manipulated in a similar manner. The Ligand program (27, 28) was used to calculate the number of IGF-1 binding sites per cell. IGF-1 receptors on MCF-7 cells were immunofluorescence labeled using 5 μg/ml mAb αIR3 and an FITC-conjugated goat anti-mouse IgG (diluted 1:50). […] Labeled cells were fixed in PBS containing 1% formalin and analyzed using a FACS Calibur System (Becton-Dickinson, San Jose, Calif.).

[2] = system: IGF-I proteolysis in H-59 and MCF-7 cell lysates; experiment: IGF-1 proteolysis assay, tumor cell lysates; assay type: biochemical
Procedure: These preparations were incubated for various lengths of time at 37° C. with 10-^6 M unlabeled or 50,000 cpm [^125I]-labeled IGF-1 in 200 or 400 μl of 50 mM citrate-phosphate pH 5, respectively. The integrity of the radiolabeled ligand was assessed by precipitation with 10% trichloroacetic acid (Authier et al, 1995). To measure proteolysis of the unlabeled IGF-1, the samples were acidified with acetic acid (15%) and immediately loaded onto a reverse-phase HPLC column. Reverse-phase HPLC was performed on a Waters model 600 liquid chromatograph equipped with a model U6K sample injector fitted with a […] and a mBondapak C18 column (Waters, 0.39×30 cm, […]). Samples were chromatographed using as eluent a mixture of 0.1% TFA in water (solvent A) and 0.1% TFA in acetonitrile (solvent B) with a flow rate of 1 ml/min. Elution was carried out using two sequential linear gradients followed by an isocratic elution: an initial gradient of 0-20% solvent B (30 min); a second gradient of 20-39% solvent B (15 min); and a third isocratic elution of 39% solvent B (15 min). Eluates were monitored on-line for absorbance at 214 nm with a LC spectrophotometer.

H-59 cells = experiment: IGF-I induced thymidine incorporation with E-64, H-59; assay type: cell-based, murine
human IGF-I receptor = experiment: Fluorocytometry of cell surface IGF-1 receptors with mAb αIR3, MCF-7; assay type: cell-based
Procedure: as §1

[3] = system: IGF-IR β subunit and substrates; experiment: Immunoprecipitation and anti-phosphotyrosine Western blot, H-59; assay type: cell-based, murine
Procedure: (§2) Cells were then washed with PBS, solubilized in 30 mM Hepes pH 7.4, 150 mM NaCl, 1% Triton X-100, and spun at maximal speed in a microfuge for 15 min. Cell lysates (1 to 3 mg) were then immunoprecipitated respectively with anti-Shc, anti-IRS-1 or anti-IGF-IR antibodies overnight at 4° C. Immunoprecipitates were collected by addition of Protein A-Sepharose beads, washed three times with lysis buffer and resuspended finally in Laemmli sample buffer (Long et al 1986a). Immunoprecipitates were resolved by SDS-PAGE and transferred onto nitrocellulose membranes followed by immunoblotting with anti-phosphotyrosine antibodies or with antibodies to IRS-1, Shc or IGF-1R followed by HRP—conjugated goat anti-mouse or goat anti-rabbit IgG antibodies.

MMP-2 = experiment: IGF-1-mediated induction of MMP-2 synthesis (Northern, Western, zymography); assay type: cell-based, murine
Text: This medium was replenished on alternate days for 12 days. […] Blots were probed with a 1:500 dilution of mAb Ab-45 to MMP-2 and an alkaline phosphatase conjugated affinity purified, goat anti rabbit IgG, diluted 1:2000. For Northern blotting, a ^32P-labeled 1.1-Kb human MMP-2 and an 800-bp rat cyclophilin cDNA fragment were used as hybridization probes.

[4] = system: endosomal IGF-I proteolysis; experiment: IGF-1 proteolysis assay, liver endosomal extract; assay type: biochemical, rat
Procedure: H-59 is a highly metastatic subline of the Lewis lung carcinoma with metastatic predilection for the liver, (Brodt et al 1986). Human breast carcinoma cell line MCF-7 was a gift from Dr. Mader (Dept of Biochemistry, University of Montreal, PQ, Canada). Endosomal fractions were prepared from livers of male Sprague-Dawley rats after an 18 h period of fasting. The livers were homogenized and the endosomal fractions isolated by discontinuous sucrose gradient centrifugation and collected at the 0.25 M to 1.0 M sucrose interface (20, 21, 24). The soluble extract (ENs) from the endosomal fractions was isolated by freeze/thawing in 5 mM Na-phosphate pH 7.4, and disrupted in the same hypotonic medium using a small Dounce homogenizer (15 strokes with the tight Type A pestle) followed by centrifugation at 300,000×gav for 30 min as described previously (20, 21, 24).
These preparations were incubated for various lengths of time at 37° C. with 10-^6 M unlabeled or 50,000 cpm [^125I]-labeled IGF-1 in 200 or 400 μl of 50 mM citrate-phosphate pH 5, respectively. The integrity of the radiolabeled ligand was assessed by precipitation with 10% trichloroacetic acid (Authier et al, 1995). […] Eluates were monitored on-line for absorbance at 214 nm with a LC spectrophotometer.

IGF-IR = IGF-IR mRNA and total immunoprecipitable receptor levels; assay type: cell-based; conditions: H-59 and MCF-7
Procedure: as §2

H-59 tumor cells = conditions: in vivo; cited from earlier work
MCF-7 cells = experiment: IGF-I induced thymidine incorporation with E-64, MCF-7; assay type: cell-based, human
[5] = system: IGF-IR β subunit and substrates; experiment: Immunoprecipitation and anti-phosphotyrosine Western blot, MCF-7; assay type: cell-based, human
Procedure: as §2

Structure (SMILES): CC(C)C[C@H](NC(=O)[C@H]1O[C@@H]1C(=O)O)C(=O)NCCCCN=C(N)N (relative stereo) [E-64, trans-epoxysuccinyl-L-leucylamido (4-guanidino)-butane]
- number of IGF-I binding sites ([1]; H-59, E-64 treated (untreated 3.9×10^5)): 1.8×10^5 sites/cell
- reduction of the number of IGF-I binding sites ([1]; H-59, E-64 treated vs untreated): more than 2 fold
- increase in TCA-soluble radioactivity over time (IGF-I proteolysis) ([2]; cell lysates, radioiodinated IGF-I, 1 hr): completely abolished
- IGF-I degradation products by reverse phase HPLC ([2]; lysates of E-64-treated tumor cells, acidic pH): absent following E-64 treatment
- incorporation of 3H-thymidine in response to IGF-I (H-59 cells; H-59): completely abrogated
- IGF-I induced proliferation (H-59 cells; H-59, E-64 10 μg/ml): abolished
- reduction in the number of immunolabeled cells (human IGF-I receptor; MCF-7, 40 min after addition of ligand): 45%
- mean intensity of fluorescence (human IGF-I receptor; MCF-7, 40 min after addition of ligand (declining from 255)): 82
- ligand-induced tyrosine phosphorylation of p52shc [3]: increase
- reduction of MMP-2 mRNA synthesis (MMP-2; H-59, E-64 10 μg/ml): 2 fold
- MMP-2 production and activity (MMP-2; Western blotting and gelatin zymography, E-64 10 μg/ml): decreased MMP-2 production and activity
- increase in TCA-soluble radioactivity over time (IGF-I proteolysis) ([4]; endosomal fractions, radioiodinated IGF-I, 1 hr): completely abolished
- IGF-I degradation products by reverse phase HPLC ([4]; liver parenchymal endosomal fractions, acidic pH): absent following E-64 treatment
- IGF-IR mRNA levels (IGF-IR): In neither of these cell types did E-64 treatment cause a reduction
- liver colonization by H-59 tumor cells (H-59 tumor cells): inhibited liver colonization
- incorporation of 3H-thymidine in response to IGF-I (MCF-7 cells; MCF-7): completely abrogated
- IGF-I induced proliferation (MCF-7 cells; MCF-7, E-64 10 μg/ml): abolished
- tyrosine phosphorylated IRS-1 [5]: increase
